Experimental data: the NIST ThermoML archive (doi:10.1021/acs.jced.5b00623)
Several values for one entry are separate records, joined by “and”; a condition that tells them apart may be missing. Identical values can stand only once. ± gives the expanded uncertainty stated by the source.

Conditions: for vapor or sublimation pressure: Closed cell (Static) method

O=C(C(F)(F)C(F)(F)F)C(F)(C(F)(F)F)C(F)(F)F [dodecafluoro-2-methylpentan-3-one]
Conditions	mass density [kg/m3]	speed of sound [m/s]
225.01 K, 992.5 kPa, Liquid, Buoyancy - hydrostatic balance with magnetic suspension - two sinkers	1809.67 ± 0.23	–
225.01 K, 6306.6 kPa, Liquid, Buoyancy - hydrostatic balance with magnetic suspension - two sinkers	1821.02 ± 0.23	–
235 K, 11155 kPa, Liquid, Buoyancy - hydrostatic balance with magnetic suspension - two sinkers	1806.22 ± 0.23	–
240 K, 16200 kPa, Liquid, Buoyancy - hydrostatic balance with magnetic suspension - two sinkers	1804.64 ± 0.23	–
245 K, 21227 kPa, Liquid, Buoyancy - hydrostatic balance with magnetic suspension - two sinkers	1803.18 ± 0.23	–
250 K, 26208 kPa, Liquid, Buoyancy - hydrostatic balance with magnetic suspension - two sinkers	1801.77 ± 0.23	–
260 K, 1145.1 kPa, Liquid, Buoyancy - hydrostatic balance with magnetic suspension - two sinkers	1716.09 ± 0.21	–
260 K, 6242.2 kPa, Liquid, Buoyancy - hydrostatic balance with magnetic suspension - two sinkers	1731.21 ± 0.21	–
260 K, 12122 kPa, Liquid, Buoyancy - hydrostatic balance with magnetic suspension - two sinkers	1746.98 ± 0.22	–
260 K, 18392 kPa, Liquid, Buoyancy - hydrostatic balance with magnetic suspension - two sinkers	1762.27 ± 0.22	–
260 K, 27930 kPa, Liquid, Buoyancy - hydrostatic balance with magnetic suspension - two sinkers	1783.14 ± 0.23	–
260 K, 36060 kPa, Liquid, Buoyancy - hydrostatic balance with magnetic suspension - two sinkers	1799.13 ± 0.24	–
270 K, 8922.2 kPa, Liquid, Buoyancy - hydrostatic balance with magnetic suspension - two sinkers	1713.2 ± 0.21	–
275 K, 12791 kPa, Liquid, Buoyancy - hydrostatic balance with magnetic suspension - two sinkers	1711.88 ± 0.21	–
278.15 K, 83 kPa, Liquid, Vibrating tube method	1660.83 ± 0.49	–
280 K, 16636 kPa, Liquid, Buoyancy - hydrostatic balance with magnetic suspension - two sinkers	1710.6 ± 0.21	–
283.15 K, 83 kPa, Liquid, Vibrating tube method	1646.79 ± 0.49	–
285 K, 20456 kPa, Liquid, Buoyancy - hydrostatic balance with magnetic suspension - two sinkers	1709.38 ± 0.21	–
288.15 K, 83 kPa, Liquid, Vibrating tube method	1632.33 ± 0.47	–
290 K, 24255 kPa, Liquid, Buoyancy - hydrostatic balance with magnetic suspension - two sinkers	1708.2 ± 0.22	–
293.15 K, 83 kPa, Liquid, Vibrating tube method	1617.51 ± 0.46	–
295 K, 28026 kPa, Liquid, Buoyancy - hydrostatic balance with magnetic suspension - two sinkers	1707.06 ± 0.22	–
298.15 K, 83 kPa, Liquid, Vibrating tube method	1602.48 ± 0.46	–
303 K, 1007.3 kPa, Liquid, Buoyancy - hydrostatic balance with magnetic suspension - two sinkers	1592.53 ± 0.23	–
303 K, 1089 kPa, Liquid, Buoyancy - hydrostatic balance with magnetic suspension - two sinkers	1592.94 ± 0.22	–
303 K, 5959.8 kPa, Liquid, Buoyancy - hydrostatic balance with magnetic suspension - two sinkers	1615.54 ± 0.22	–
303 K, 6069.2 kPa, Liquid, Buoyancy - hydrostatic balance with magnetic suspension - two sinkers	1616.01 ± 0.2	–
303 K, 12121 kPa, Liquid, Buoyancy - hydrostatic balance with magnetic suspension - two sinkers	1639.93 ± 0.2	–
303 K, 22348 kPa, Liquid, Buoyancy - hydrostatic balance with magnetic suspension - two sinkers	1673.62 ± 0.21	–
303 K, 28346 kPa, Liquid, Buoyancy - hydrostatic balance with magnetic suspension - two sinkers	1690.63 ± 0.22	–
303 K, 33973 kPa, Liquid, Buoyancy - hydrostatic balance with magnetic suspension - two sinkers	1705.21 ± 0.22	–
303.15 K, 83 kPa, Liquid, Vibrating tube method	1587.28 ± 0.46	–
308.15 K, 83 kPa, Liquid, Vibrating tube method	1571.82 ± 0.46	–
310 K, 4843.5 kPa, Liquid, Buoyancy - hydrostatic balance with magnetic suspension - two sinkers	1590.92 ± 0.2	–
318 K, 9214.8 kPa, Liquid, Buoyancy - hydrostatic balance with magnetic suspension - two sinkers	1589.2 ± 0.2	–
318 K, 9295.7 kPa, Liquid, Buoyancy - hydrostatic balance with magnetic suspension - two sinkers	1589.59 ± 0.2	–
324.97 K, 65.34 kPa, Gas, Spherical resonator	–	90.45 ± 0.19
324.97 K, 82.58 kPa, Gas, Spherical resonator	–	89.49 ± 0.19
324.97 K, 100.55 kPa, Gas, Spherical resonator	–	88.41 ± 0.19
324.97 K, 100.57 kPa, Gas, Spherical resonator	–	88.41 ± 0.19
324.97 K, 100.58 kPa, Gas, Spherical resonator	–	88.41 ± 0.19
326.01 K, 13558 kPa, Liquid, Buoyancy - hydrostatic balance with magnetic suspension - two sinkers	1587.57 ± 0.2	–
334.01 K, 17866 kPa, Liquid, Buoyancy - hydrostatic balance with magnetic suspension - two sinkers	1585.99 ± 0.2	–
334.02 K, 17984 kPa, Liquid, Buoyancy - hydrostatic balance with magnetic suspension - two sinkers	1586.44 ± 0.2	–
340 K, 1091.8 kPa, Liquid, Buoyancy - hydrostatic balance with magnetic suspension - two sinkers	1474.85 ± 0.18	–
340 K, 4035.6 kPa, Liquid, Buoyancy - hydrostatic balance with magnetic suspension - two sinkers	1497.23 ± 0.19	–
340 K, 7986.5 kPa, Liquid, Buoyancy - hydrostatic balance with magnetic suspension - two sinkers	1522.5 ± 0.19	–
340 K, 11938 kPa, Liquid, Buoyancy - hydrostatic balance with magnetic suspension - two sinkers	1544.06 ± 0.19	–
340 K, 16171 kPa, Liquid, Buoyancy - hydrostatic balance with magnetic suspension - two sinkers	1564.25 ± 0.2	–
340 K, 21184 kPa, Liquid, Buoyancy - hydrostatic balance with magnetic suspension - two sinkers	1585.31 ± 0.2	–
342.01 K, 22145 kPa, Liquid, Buoyancy - hydrostatic balance with magnetic suspension - two sinkers	1584.49 ± 0.2	–
349.97 K, 150.02 kPa, Gas, Spherical resonator	–	90.93 ± 0.19
349.97 K, 191.77 kPa, Gas, Spherical resonator	–	88.85 ± 0.19
349.98 K, 61.83 kPa, Gas, Spherical resonator	–	94.86 ± 0.2
349.98 K, 106.24 kPa, Gas, Spherical resonator	–	92.93 ± 0.19
350 K, 53.94 kPa, Gas, Spherical resonator	–	95.2 ± 0.2
350 K, 104.66 kPa, Gas, Spherical resonator	–	93 ± 0.19
350 K, 152.11 kPa, Gas, Spherical resonator	–	90.82 ± 0.19
350 K, 191.03 kPa, Gas, Spherical resonator	–	88.88 ± 0.19
350 K, 26385 kPa, Liquid, Buoyancy - hydrostatic balance with magnetic suspension - two sinkers	1583.04 ± 0.2	–
360 K, 1009.8 kPa, Liquid, Buoyancy - hydrostatic balance with magnetic suspension - two sinkers	1401.62 ± 0.18	–
360 K, 6002.5 kPa, Liquid, Buoyancy - hydrostatic balance with magnetic suspension - two sinkers	1449.57 ± 0.18	–
360 K, 8915.5 kPa, Liquid, Buoyancy - hydrostatic balance with magnetic suspension - two sinkers	1471.34 ± 0.19	–
360 K, 11021 kPa, Liquid, Buoyancy - hydrostatic balance with magnetic suspension - two sinkers	1485.32 ± 0.19	–
360 K, 16073 kPa, Liquid, Buoyancy - hydrostatic balance with magnetic suspension - two sinkers	1514.43 ± 0.19	–
360 K, 21146 kPa, Liquid, Buoyancy - hydrostatic balance with magnetic suspension - two sinkers	1539.18 ± 0.2	–
360 K, 31620 kPa, Liquid, Buoyancy - hydrostatic balance with magnetic suspension - two sinkers	1581.19 ± 0.21	–
370 K, 4182.9 kPa, Liquid, Buoyancy - hydrostatic balance with magnetic suspension - two sinkers	1400.06 ± 0.18	–
375.01 K, 57.06 kPa, Gas, Spherical resonator	–	98.91 ± 0.2
375.01 K, 123.45 kPa, Gas, Spherical resonator	–	96.64 ± 0.2
375.01 K, 220.4 kPa, Gas, Spherical resonator	–	93.07 ± 0.19
375.01 K, 316.42 kPa, Gas, Spherical resonator	–	89.11 ± 0.19
380 K, 7353.3 kPa, Liquid, Buoyancy - hydrostatic balance with magnetic suspension - two sinkers	1398.51 ± 0.18	–
380.04 K, 16688 kPa, Liquid, Buoyancy - hydrostatic balance with magnetic suspension - two sinkers	1468.1 ± 0.19	–
385.99 K, 9254.1 kPa, Liquid, Buoyancy - hydrostatic balance with magnetic suspension - two sinkers	1397.63 ± 0.18	–
393.98 K, 11788 kPa, Liquid, Buoyancy - hydrostatic balance with magnetic suspension - two sinkers	1396.48 ± 0.18	–
400 K, 2018.5 kPa, Liquid, Buoyancy - hydrostatic balance with magnetic suspension - two sinkers	1244.05 ± 0.17	–
400 K, 3987.4 kPa, Liquid, Buoyancy - hydrostatic balance with magnetic suspension - two sinkers	1284.55 ± 0.17	–
400 K, 8129.1 kPa, Liquid, Buoyancy - hydrostatic balance with magnetic suspension - two sinkers	1342.48 ± 0.18	–
400.01 K, 11999 kPa, Liquid, Buoyancy - hydrostatic balance with magnetic suspension - two sinkers	1381.28 ± 0.18	–

83 kPa, Liquid, Frequency=3 MHz, Sing-around technique in a fixed-path interferometer
Conditions	speed of sound [m/s]
278.15 K	567.88 ± 0.89
283.15 K	551.54 ± 0.89
288.15 K	535.45 ± 0.88
293.15 K	519.58 ± 0.88
298.15 K	503.72 ± 0.88
303.15 K	488.11 ± 0.87
308.15 K	472.63 ± 0.87

Liquid
Conditions	vapor or sublimation pressure
324.96 K	111.4 ± 1.3 kPa and 111.4 ± 1.4 kPa
324.97 K	111.4 ± 1.4 kPa and 111.3 ± 1.4 kPa
324.98 K	111.6 ± 1.3 kPa
339.95 K	180.3 ± 1.4 kPa
349.99 K	242.7 ± 1.4 kPa
354.98 K	278.7 ± 1.4 kPa
370 K	413.4 ± 1.5 kPa
374.99 K	467.9 ± 1.6 kPa and 467.6 ± 1.6 kPa
390.03 K	663.7 ± 1.8 kPa
